Laboratory results taken from patent publication US8648208B2, “Activating agent for peroxisome proliferator activated receptor” (Nippon Chemiphar Co. Ltd., priority 2008, dated 2014).

Key:
[1] = biological target: T1, hPPARδ (LBD) (Homo sapiens, UniProt Q03181); assay: PPAR activating effect, GAL4-hPPARδ LBD luciferase reporter transfection in CV-1 cells; type: cell-based; design: activation: dose or concentration left out as unconfirmed; details: for activation / activation at 0.1 µM: CV-1, 40 h, read-out: PPAR activity δ (relative value to control compound); for EC50: Table 25, CV-1 cells, method of Example 29, read-out: PPAR activity (EC50) δ; for selectivity of PPAR δ-activating effect: compared with GW-501516, from EC50 α, γ, δ of Table 25
T1 construct: A receptor expression plasmid (pSG5-GAL4-hPPARα or γ or δ (LBD)); GAL4 (fusion partner); expressed in transfected cells; host or cells: CV-1 cells (ATCC)
T1 sequence (Q03181 211-439 limits assumed): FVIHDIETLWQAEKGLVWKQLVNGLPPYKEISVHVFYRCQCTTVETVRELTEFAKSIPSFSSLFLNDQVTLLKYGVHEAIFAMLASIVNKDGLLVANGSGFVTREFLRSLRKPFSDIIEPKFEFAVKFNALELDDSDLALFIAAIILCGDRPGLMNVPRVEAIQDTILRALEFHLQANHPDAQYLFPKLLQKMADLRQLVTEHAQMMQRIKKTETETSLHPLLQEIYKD

[2] = biological target: T2, hPPARα (LBD) (Homo sapiens, UniProt Q07869); assay: PPAR activating effect, GAL4-hPPARα LBD luciferase reporter transfection in CV-1 cells; type: cell-based; details: for EC50: Table 25, method of Example 29, read-out: PPAR activity (EC50) α
T2 construct: A receptor expression plasmid (pSG5-GAL4-hPPARα or γ or δ (LBD)); GAL4 (fusion partner); expressed in transfected cells; host or cells: CV-1 cells (ATCC)
T2 sequence (Q07869 239-466 limits assumed): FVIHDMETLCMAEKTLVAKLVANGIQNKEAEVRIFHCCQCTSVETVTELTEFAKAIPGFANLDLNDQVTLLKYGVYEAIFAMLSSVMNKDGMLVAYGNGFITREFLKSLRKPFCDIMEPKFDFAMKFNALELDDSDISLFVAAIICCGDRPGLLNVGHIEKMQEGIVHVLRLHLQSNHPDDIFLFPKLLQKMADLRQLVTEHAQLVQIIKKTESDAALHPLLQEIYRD

[3] = biological target: T3, hPPARγ (LBD) (Homo sapiens, UniProt P37231); assay: PPAR activating effect, GAL4-hPPARγ LBD luciferase reporter transfection in CV-1 cells; type: cell-based; details: for EC50: Table 25, method of Example 29, read-out: PPAR activity (EC50) γ
T3 construct: A receptor expression plasmid (pSG5-GAL4-hPPARα or γ or δ (LBD)); GAL4 (fusion partner); expressed in transfected cells; host or cells: CV-1 cells (ATCC)
T3 sequence (P37231 238-503 limits assumed): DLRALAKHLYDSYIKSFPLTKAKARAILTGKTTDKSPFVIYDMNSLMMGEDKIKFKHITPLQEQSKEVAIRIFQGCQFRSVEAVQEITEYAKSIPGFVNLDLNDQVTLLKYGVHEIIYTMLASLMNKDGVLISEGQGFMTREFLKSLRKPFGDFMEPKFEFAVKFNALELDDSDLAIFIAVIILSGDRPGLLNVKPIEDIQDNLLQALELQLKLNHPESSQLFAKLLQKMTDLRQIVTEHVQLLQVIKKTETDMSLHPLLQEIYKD

[4] = Table 24, 100% = GW-590735 10^-6 M, CV-1 cells, approx. 40 h
[5] = Table 24, 100% = Rosiglitazone 10^-5 M, CV-1 cells, approx. 40 h
[6] = Table 26, test compound 10^-7 M, 100% = GW-590735 10^-6 M
[7] = Table 26, test compound 10^-7 M, 100% = Rosiglitazone 10^-5 M

SMILES | activation [1] | PPAR activity α (relative value to control compound) [2, 4] | PPAR activity γ (relative value to control compound) [3, 5] | activation at 0.1 µM [1] | PPAR activity α (relative value to control compound) [2, 6] | PPAR activity γ (relative value to control compound) [3, 7] | other results
Cc1cc(C(=O)CCc2sc3cc(C(F)(F)F)ccc3c2C(C)C)ccc1CCC(=O)O [Example 12, 3-[2-methyl-4-[3-[3-isopropyl-6-(trifluoromethyl)benzothiophen-2-yl]propionyl]phenyl]propionic acid] | 87.3% | Inactive | Inactive | – | – | – | –
Cc1cc(C(CCc2sc3cc(C(F)(F)F)ccc3c2C(C)C)=NO)ccc1CCC(=O)O [Example 13, 3-[4-[1-Hydroxyimino-3-[3-isopropyl-6-(trifluoromethyl)-benzothiophen-2-yl]propyl]-2-methylphenyl]propionic acid] | 90.4% | Inactive | Inactive | – | – | – | –
C=C(CCc1sc2cc(C(F)(F)F)ccc2c1C(C)C)c1ccc(CCC(=O)O)c(C)c1 [Example 14, 3-[4-[1-[2-[3-Isopropyl-6-(trifluoromethyl)-benzothiophen-2-yl]ethyl]vinyl]-2-methylphenyl]propionic acid] | 73% | Inactive | Inactive | – | – | – | –
Cc1cc(C(=O)CCc2sc3cc(C(F)(F)F)ccc3c2C(C)C)ccc1OCC(=O)O [Example 15, 4-[3-[3-Isopropyl-6-(trifluoromethyl)benzothiophen-2-yl]-propionyl]-2-methylphenoxyacetic acid] | 77.4% | Inactive | Inactive | – | – | – | –
Cc1cc(C(CCc2sc3cc(C(F)(F)F)ccc3c2C(C)C)=NO)ccc1OCC(=O)O [Example 16, 4-[1-Hydroxyimino-3-[3-isopropyl-6-(trifluoromethyl)-benzothiophen-2-yl]propyl]-2-methyl-phenoxyacetic acid] | 51.7% | Inactive | Inactive | – | – | – | –
CON=C(CCc1sc2cc(C(F)(F)F)ccc2c1C(C)C)c1ccc(OCC(=O)O)c(C)c1 [Example 17, 4-[3-[3-Isopropyl-6-(trifluoromethyl)benzothiophen-2-yl]-1-methoxyiminopropyl]-2-methylphenoxyacetic acid] | 45.9% | Inactive | Inactive | – | – | – | –
Cc1cc2c(CCc3sc4cc(C(F)(F)F)ccc4c3C(C)C)noc2cc1OCC(=O)O [Example 19, [3-[2-[3-Isopropyl-6-(trifluoromethyl)benzothiophen-2-yl]-ethyl]-5-methyl-benzisoxazol-6-yloxy]acetic acid] | 91.7% | Inactive | Inactive | – | – | – | EC50 [1]: 0.0048 µM; selectivity of PPAR δ-activating effect [1]: superior to that of the GW-501516; EC50 ([2]; CV-1 cells): > 10 µM; EC50 ([3]; CV-1 cells): > 10 µM
Cc1cc2c(CCc3sc4cc(C(F)(F)F)ccc4c3C(C)C)noc2cc1CCC(=O)O [Example 21, 3-[3-[2-[3-Isopropyl-6-(trifluoromethyl)benzothiophen-2-yl]-ethyl]-5-methylbenzisoxazol-6-yl]propionic acid] | 94.2% | Inactive | Inactive | – | – | – | EC50 [1]: 0.0013 µM; selectivity of PPAR δ-activating effect [1]: superior to that of the GW-501516; EC50 ([2]; CV-1 cells): > 10 µM; EC50 ([3]; CV-1 cells): > 10 µM
CCCc1c(CCC(=NO)c2cc(C)c(OCC(=O)O)cc2O)sc2cc(C(F)(F)F)ccc12 [Example 23, 5-Hydroxy-4-[1-hydroxyimino-3-[3-propyl-6-(trifluoromethyl)benzothiophen-2-yl]propyl]-2-methyl-phenoxyacetic acid] | – | – | – | 5.1% | Inactive | Inactive | –
CCCc1c(CCc2noc3cc(N(C)CC(=O)O)c(C)cc23)sc2cc(C(F)(F)F)ccc12 [Example 24, N-[5-Methyl-3-[2-[3-propyl-6-(trifluoromethyl)benzothiophen-2-yl]ethyl]benzisoxazol-6-yl]-N-methylglycine] | – | – | – | 77.2% | – | – | activation at 0.1 µM ([2]; CV-1, 40 h, Table 26, test compound 10^-7 M, 100% = GW-590735 10^-6 M, read-out: PPAR activity α (relative value to control compound)): 16.4%; melting point: 147 to 149 °C; activation at 0.1 µM ([3]; CV-1, 40 h, Table 26, test compound 10^-7 M, 100% = Rosiglitazone 10^-5 M, read-out: PPAR activity γ (relative value to control compound)): 5.8%
CCCc1c(CCc2noc3cc(OCC(=O)O)c(C)cc23)sc2cc(C(F)(F)F)ccc12 [Example 25, [5-Methyl-3-[2-[3-propyl-6-(trifluoromethyl)benzothiophen-2-yl]ethyl]benzisoxazol-6-yloxy]acetic acid] | – | – | – | 87.4% | Inactive | Inactive | –
CCCc1c(CCc2noc3cc(CCC(=O)O)c(C)cc23)sc2cc(C(F)(F)F)ccc12 [Example 26, 3-[5-Methyl-3-[2-[3-propyl-6-(trifluoromethyl)benzothiophen-2-yl]ethyl]benzisoxazol-6-yl]propionic acid] | – | – | – | 88.8% | Inactive | Inactive | –
CC(C)c1c(CCc2noc3cc(N(C)CC(=O)O)ccc23)sc2cc(C(F)(F)F)ccc12 [Example 28, N-[3-[2-[3-Isopropyl-6-(trifluoromethyl)benzothiophen-2-yl]ethyl]benzisoxazol-6-yl]-N-methylglycine] | – | – | – | 81.3% | Inactive | Inactive | melting point: 153 to 156 °C
